This is an account of results in ChEMBL document CHEMBL1137472, “Discovery of potent HIV-1 protease inhibitors incorporating sulfoximine functionality” (Bioorg Med Chem Lett, 2007).

SMILES strings stand for the structures.

Test [1] deals with Protease (Human immunodeficiency virus 1) (UniProt Q9YQ12). Description: Inhibition of HIV1 recombinant protease at 10 uM.
Test [2] concerns Human immunodeficiency virus 1. Put plainly: Antiviral activity against HIV1. It is filed as functional, organism-based.
The next test addresses Protease (Human immunodeficiency virus 1, UniProt Q9YQ12). Put plainly: Inhibition of HIV1 recombinant protease.

Chain of Protease (Human immunodeficiency virus 1) (Q9YQ12 as listed by the source): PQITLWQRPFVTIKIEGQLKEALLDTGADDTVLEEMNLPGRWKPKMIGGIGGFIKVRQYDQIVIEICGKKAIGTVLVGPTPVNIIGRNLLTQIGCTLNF
Chain of Protease (Q9YQ12 whole entry): as the sequence (Q9YQ12 as listed by the source) above

As to `O=C(N[C@H]1c2ccccc2C[C@H]1O)C(Cc1ccccc1)C[S+]([O-])CC(Cc1ccccc1)C(=O)N[C@H]1c2ccccc2C[C@H]1O` (stereo partly specified), the inhibition in test [1] was 75%.

Regarding `O=C(N[C@H]1c2ccccc2C[C@H]1O)C(Cc1ccccc1)S(=O)(=O)C(Cc1ccccc1)C(=O)N[C@H]1c2ccccc2C[C@H]1O` (stereo partly specified), in test [1], the inhibition came out at 30%.

Consider `N=[S+]([O-])(C[C@H](Cc1ccccc1)C(=O)N[C@@H]1c2ccccc2C[C@@H]1O)C[C@H](Cc1ccccc1)C(=O)N[C@@H]1c2ccccc2C[C@@H]1O`, for which the figures for the IC50 (in test [2]; at Protease) were 408 nM and 2.5 nM, respectively. Consider `N=[S+]([O-])(C(Cc1ccccc1)C(=O)N[C@H]1c2ccccc2C[C@H]1O)C(Cc1ccccc1)C(=O)N[C@H]1c2ccccc2C[C@H]1O` (stereo partly specified), for which, in test [1], the inhibition is 87%. Regarding `N=[S+]([O-])([C@H](Cc1ccccc1)C(=O)N[C@H]1c2ccccc2C[C@H]1O)[C@@H](Cc1ccccc1)C(=O)N[C@H]1c2ccccc2C[C@H]1O`, the IC50 on Protease stood at 37.3 nM. On to `N=[S+]([O-])([C@H](Cc1ccccc1)C(=O)N[C@H]1c2ccccc2C[C@H]1O)[C@H](Cc1ccccc1)C(=O)N[C@H]1c2ccccc2C[C@H]1O`, for which the IC50 on Protease turned out to be 154 nM. As for `O=C(N[C@H]1c2ccccc2C[C@H]1O)[C@@H](Cc1ccccc1)C[S+]([O-])C[C@H](Cc1ccccc1)C(=O)N[C@H]1c2ccccc2C[C@H]1O`, at Protease, the IC50 is more than 10000 nM. The same measure, in the same setting: for `O=C(N[C@H]1c2ccccc2C[C@H]1O)[C@H](Cc1ccccc1)C[S+]([O-])C[C@H](Cc1ccccc1)C(=O)N[C@H]1c2ccccc2C[C@H]1O` the value was 53.1 nM; for `O=C(N[C@@H]1c2ccccc2C[C@@H]1O)[C@@H](Cc1ccccc1)C[S+]([O-])C[C@H](Cc1ccccc1)C(=O)N[C@@H]1c2ccccc2C[C@@H]1O` (single isomer, unassigned), 21.1 nM.

For `O=C(N[C@H]1c2ccccc2C[C@H]1O)C(CSCC(Cc1ccccc1)C(=O)N[C@H]1c2ccccc2C[C@H]1O)Cc1ccccc1` (stereo partly specified), the inhibition in test [1] is 15%.

A word on the inhibition: it is the drop in the measured response relative to a control, in per cent. The IC50 is the midpoint of a concentration-inhibition curve.
